According to article PMC9138505, “Small Molecule 20S Proteasome Enhancer Regulates MYC Protein Stability and Exhibits Antitumor Activity in Multiple Myeloma” (Biomedicines, 2022):
Where “and” joins values, the source holds several entries; their conditions need not be identical. Equal values may be shown once.

Test system: RPMI-8226 cells
Assay: Gene expression profiling, NanoString nCounter PanCancer Pathways Panel, ROSALIND analysis
Assay type: cell-based, human
Settings: RPMI-8226, TCH-165 samples 1-3
Method: RPMI-8226 cells were treated with vehicle or TCH-165 (10 μM) for 4 h. Total RNA was obtained using the mirVana miRNA Isolation Kit, with phenol (Thermofisher Scientific; AM1560; Waltham, MA, USA). Total RNA was quantified by Qubit (Thermofisher Scientific; Q32855; Waltham, MA, USA). and gene expression was evaluated against the nCounter® PanCancer Pathways Panel^TM according to the standard NanoString protocol.
Data were analyzed by ROSALIND® [36] with a hyperscale architecture developed by ROSALIND, Inc. (San Diego, CA, USA). Normalization, fold changes and p-values were calculated using criteria provided by NanoString. ROSALIND follows the nCounter® Advanced Analysis protocol of dividing counts within a lane by the geometric mean of the normalizer probes from the same lane. Housekeeping probes to be used for normalization are selected based on the geNorm algorithm, as implemented in the NormqPCR R library. Fold changes and p-values are calculated using the fast method as described in the nCounter Advanced Analysis 2.0 User Manual. The p-value adjustment is performed using the Benjamini–Hochberg method of estimating false discovery rates (FDR). Clustering of genes for the final heatmap of differentially expressed genes was done using the PAM (Partitioning Around Medoids) method using the fpc R library. Hypergeometric distribution was used to analyze the enrichment of pathways, gene ontology, domain structure and other ontologies. The topGO R library was used to determine local similarities and dependencies between GO terms in order to perform Elim pruning correction. Several database sources were referenced for enrichment analysis, including Interpro [40], NCBI [41], MSigDB [42, 43], REACTOME [44], WikiPathways. Enrichment was calculated relative to a set of background genes relevant to the experiment.

For `CCOC(=O)[C@]1(c2ccccc2)N=C(c2ccc(OC)cc2)N(Cc2ccccc2)[C@@H]1c1ccc(NCc2ccccc2)cc1` [TCH-165], which “FGF2 normalized gene expression” value is on record?
The value was 5.208 and 4.324 and 4.613.

What about the “FGF3 normalized gene expression” value of the same molecule?
The value was 4.401 and 4.524 and 4.693.

What about the “FGF4 normalized gene expression” value of the same molecule?
The value was 5.044 and 4.927 and 4.613.

And the “FGF5 normalized gene expression” value?
The value was 2.723 and 2.569 and 3.0682.

What about the “FGF6 normalized gene expression” value of the same molecule?
Its value is 3.86 and 3.891 and 3.184.

What about the “FGF7 normalized gene expression” value of the same molecule?
Its value is 4.86 and 4.996 and 4.653.

What about the “FGF8 normalized gene expression” value of the same molecule?
Its value is 4.723 and 3.569 and 3.805.

What about the “FGF9 normalized gene expression” value of the same molecule?
The value was 7.044 and 7.045 and 7.083.

And the “FGF10 normalized gene expression” value?
The value was 5.308 and 4.614 and 4.975.

What about the “FGF11 normalized gene expression” value of the same molecule?
Its value is 5.53 and 5.154 and 4.975.

What about the “FGF12 normalized gene expression” value of the same molecule?
Its value is 3.86 and 4.7789 and 4.769.

What about the “FGF13 normalized gene expression” value of the same molecule?
Its value is 8.993 and 9.004 and 8.947.

And the “FGF14 normalized gene expression” value?
The value was 4.86 and 4.891 and 4.769.

What about the “FGF16 normalized gene expression” value of the same molecule?
Its value is 4.793 and 4.996 and 4.731.

What about the “FGF17 normalized gene expression” value of the same molecule?
The value was 2.723 and 3.154 and 3.653.

What about the “FGF18 normalized gene expression” value of the same molecule?
The value was 4.101 and 2.3768 and 3.39.

And the “FGF19 normalized gene expression” value?
The value was 3.86 and 4.029 and 4.1271.

What about the “FGF20 normalized gene expression” value of the same molecule?
Its value is 4.571 and 4.817 and 4.876.

And the “FGF21 normalized gene expression” value?
The value was 5.955 and 5.636 and 5.712.

And the “FGF22 normalized gene expression” value?
Its value is 5.827 and 5.569 and 5.098.

What about the “FGF23 normalized gene expression” value of the same molecule?
Its value is 5.208 and 5.124 and 5.341.

And the “FGFR1 normalized gene expression” value?
Its value is 4.488 and 4.324 and 4.528.

And the “FGFR2 normalized gene expression” value?
The value was 6.015 and 5.836 and 5.461.

What about the “FGFR3 normalized gene expression” value of the same molecule?
The value was 5.488 and 4.614 and 4.9095.

And the “FGFR4 normalized gene expression” value?
Its value is 4.401 and 3.891 and 4.1271.

What about the “FIGF normalized gene expression” value of the same molecule?
The value was 4.101 and 3.817 and 2.943.

What about the “FLNA normalized gene expression” value of the same molecule?
Its value is 9.475 and 9.497 and 9.54.

And the “FLNC normalized gene expression” value?
Its value is 5.924 and 5.979 and 5.528.

What about the “FLT1 normalized gene expression” value of the same molecule?
Its value is 3.401 and 4.029 and 3.653.

And the “FLT3 normalized gene expression” value?
Its value is 3.401 and 2.739 and 3.0682.

What about the “FN1 normalized gene expression” value of the same molecule?
Its value is 13.4955 and 13.457 and 13.4134.

And the “FOS normalized gene expression” value?
Its value is 7.234 and 7.603 and 7.613.

And the “FOSL1 normalized gene expression” value?
The value was 5.892 and 5.759 and 5.712.

What about the “FOXL2 normalized gene expression” value of the same molecule?
Its value is 4.924 and 4.569 and 4.528.

What about the “FOXO4 normalized gene expression” value of the same molecule?
The value was 6.986 and 7.124 and 6.787.

What about the “FST normalized gene expression” value of the same molecule?
The value was 5.308 and 5.093 and 5.184.

And the “FUBP1 normalized gene expression” value?
Its value is 10.9203 and 10.8641 and 10.8501.

And the “FUT8 normalized gene expression” value?
Its value is 8.45 and 8.328 and 8.338.

What about the “FZD2 normalized gene expression” value of the same molecule?
Its value is 4.571 and 4.817 and 5.211.

And the “FZD3 normalized gene expression” value?
The value was 7.195 and 7.427 and 7.378.

And the “FZD7 normalized gene expression” value?
The value was 4.986 and 4.7789 and 4.805.

And the “FZD8 normalized gene expression” value?
Its value is 4.401 and 3.569 and 4.1271.

And the “FZD9 normalized gene expression” value?
The value was 5.208 and 4.029 and 4.341.

And the “FZD10 normalized gene expression” value?
The value was 4.86 and 3.962 and 4.437.

What about the “GADD45A normalized gene expression” value of the same molecule?
The value was 9.132 and 9.301 and 9.248.

And the “GADD45B normalized gene expression” value?
The value was 7.884 and 7.9093 and 7.914.

What about the “GADD45G normalized gene expression” value of the same molecule?
The value was 4.101 and 4.569 and 4.693.

And the “GAS1 normalized gene expression” value?
Its value is 5.259 and 4.029 and 4.653.

And the “GATA1 normalized gene expression” value?
The value was 5.156 and 4.476 and 4.437.

And the “GATA2 normalized gene expression” value?
The value was 4.924 and 4.476 and 4.0068.

And the “GATA3 normalized gene expression” value?
The value was 2.986 and 4.029 and 4.1271.

What about the “GHR normalized gene expression” value of the same molecule?
The value was 4.208 and 4.657 and 4.876.

And the “GLI1 normalized gene expression” value?
Its value is 4.793 and 4.996 and 5.1271.

And the “GLI3 normalized gene expression” value?
Its value is 7.234 and 6.709 and 6.884.

And the “GNA11 normalized gene expression” value?
The value was 6.86 and 6.739 and 6.602.

What about the “GNAQ normalized gene expression” value of the same molecule?
Its value is 4.86 and 5.324 and 4.653.

What about the “GNAS normalized gene expression” value of the same molecule?
Its value is 10.7886 and 10.9336 and 10.8358.

What about the “GNG4 normalized gene expression” value of the same molecule?
Its value is 4.208 and 4.569 and 4.9095.

And the “GNG7 normalized gene expression” value?
The value was 5.488 and 5.452 and 4.975.

What about the “GNGT1 normalized gene expression” value of the same molecule?
The value was 4.86 and 4.699 and 4.341.

What about the “GPC4 normalized gene expression” value of the same molecule?
Its value is 4.986 and 4.324 and 4.238.

And the “GRB2 normalized gene expression” value?
The value was 11.2288 and 11.2361 and 11.1936.

And the “GRIA3 normalized gene expression” value?
Its value is 5.101 and 4.029 and 4.39.

What about the “GRIN1 normalized gene expression” value of the same molecule?
The value was 6.182 and 5.836 and 5.975.

And the “GRIN2A normalized gene expression” value?
The value was 5.955 and 5.678 and 5.437.

What about the “GRIN2B normalized gene expression” value of the same molecule?
The value was 3.401 and 3.476 and 2.943.

And the “GSK3B normalized gene expression” value?
The value was 8.384 and 8.242 and 8.36.

What about the “GTF2H3 normalized gene expression” value of the same molecule?
Its value is 9.358 and 9.284 and 9.271.

What about the “GZMB normalized gene expression” value of the same molecule?
Its value is 4.649 and 4.029 and 4.5707.

What about the “H2AFX normalized gene expression” value of the same molecule?
The value was 9.249 and 8.96 and 9.049.

What about the “H3F3A normalized gene expression” value of the same molecule?
The value was 13.5139 and 13.5375 and 13.5217.

And the “HDAC1 normalized gene expression” value?
Its value is 9.665 and 9.611 and 9.679.

And the “HDAC2 normalized gene expression” value?
Its value is 11.0236 and 10.9286 and 10.9442.

And the “HDAC4 normalized gene expression” value?
The value was 6.986 and 6.798 and 6.778.

And the “HDAC5 normalized gene expression” value?
Its value is 8.03 and 8.069 and 8.049.

And the “HDAC6 normalized gene expression” value?
Its value is 7.658 and 7.699 and 7.643.

What about the “HELLS normalized gene expression” value of the same molecule?
Its value is 9.578 and 9.451 and 9.503.

And the “HES1 normalized gene expression” value?
Its value is 4.924 and 4.855 and 4.613.

And the “HGF normalized gene expression” value?
The value was 8.129 and 8.033 and 8.145.

And the “HHEX normalized gene expression” value?
The value was 5.986 and 6.012 and 5.943.

And the “HIST1H3B normalized gene expression” value?
The value was 15.271 and 14.9487 and 14.86.

What about the “HIST1H3G normalized gene expression” value of the same molecule?
Its value is 14.1552 and 13.7784 and 13.7341.

What about the “HIST1H3H normalized gene expression” value of the same molecule?
Its value is 15.3267 and 14.9451 and 14.9056.

What about the “HMGA1 normalized gene expression” value of the same molecule?
The value was 10.7304 and 10.6516 and 10.6817.

What about the “HMGA2 normalized gene expression” value of the same molecule?
The value was 4.86 and 4.657 and 4.0068.

And the “HNF1A normalized gene expression” value?
The value was 5.53 and 4.962 and 4.769.

And the “HOXA9 normalized gene expression” value?
Its value is 5.355 and 5.242 and 5.291.

What about the “HOXA10 normalized gene expression” value of the same molecule?
The value was 5.61 and 5.592 and 5.437.

And the “HOXA11 normalized gene expression” value?
Its value is 4.986 and 5.093 and 5.414.

What about the “HPGD normalized gene expression” value of the same molecule?
The value was 4.208 and 4.3768 and 5.0068.
